Assay results reported in patent US6608027B1, “Macrocyclic peptides active against the hepatitis C virus” (Boehringer Ingelheim (Canada) Ltd, priority 1999, dated 2003).

Biological target: T1, NS3 protease (Hepatitis C virus genotype 1b, UniProt P26663)
T1 construct: expressed in transfected cells; host or cells: Huh-7 human hepatoma cells, transient co-transfection (CMV promoter)
Experiment: NS3 protease cell-based assay (SEAP reporter, Huh-7 cells)
Set-up: species or system HCV
Settings: SEAP activity, 24-hour incubation, read-out: cell. act. (EC50 code)
Excerpt: This assay is done with Huh-7 cells, a human cell line derived from a hepatoma, co-transfected with 2 DNA constructs: one (called NS3) expressing part of the HCV non-structural polyprotein fused to the tTA protein through an NS5A-NS5B cleavage site in the following order: NS3-NS4A-NS4B-NS5A-(NS5B)tTA where (NS5B) represents the 6 first amino acids of NS5
B. This polyprotein is expressed under the control of the CMV promoter, the other (called SEAP) expressing the reporter protein, secreted alkaline phosphatase (SEAP), under the regulation of a tTA-responsive promoter. The first construct leads to the expression of a polyprotein from which the different mature proteins are released through cleavage by the NS3 protease. It is believed that the mature viral proteins forms a complex at the membrane of the endoplasmic reticulum. tTA is a fusion protein, described by Gossen and Bujard (Proc. Natl. Acad. Sci. USA 89 (1992): 5547-5551), which contains a DNA-binding domain and a transcriptional activator. Release of the tTA protein requires an NS3-dependent cleavage at the NS5A-NS5B cleavage site between NS5A and itself. This last cleavage allows tTA to migrate to the nucleus and transactivate the SEAP gene. Therefore, reduction of NS3 proteolytic activity leads to confinement of tTA to the cytoplasm and concomitant decrease in SEAP activity.
To control for cellular activities other than inhibition of NS3 protease which are due to the compound, a parallel co-transfection is done with a construct expressing tTA alone and the same reporter construct such that SEAP activity is independent of the NS3 protease.
Protocol of the assay: Huh-7 cells, grown in CHO-SFMII (Life Technologies)+10% FCS (fetal calf serum) were co-transfected with the two DNA constructs in the following proportions: 7 μg NS3+500 ng SEAP+[…] FuGENE (Boehringer Mannheim) per 4×10^6 Huh-7 cells. After 5 hours at 37° C., the cells were washed, trypsinized and plated (at 80 000 cells/well) in 96-well plates containing a range of concentrations of the compounds to be tested. After a 24-hour incubation period, the SEAP activity in the medium was measured with the Phospha-Light kit (Tropix).
Analysis of the percent inhibition of SEAP activity with respect to compound concentration was performed with the SAS software to obtain the EC50.

T1 sequence (P26663 1658-1711): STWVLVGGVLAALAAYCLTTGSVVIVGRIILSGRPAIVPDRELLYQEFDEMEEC
T1 sequence (P26663 1027-1657): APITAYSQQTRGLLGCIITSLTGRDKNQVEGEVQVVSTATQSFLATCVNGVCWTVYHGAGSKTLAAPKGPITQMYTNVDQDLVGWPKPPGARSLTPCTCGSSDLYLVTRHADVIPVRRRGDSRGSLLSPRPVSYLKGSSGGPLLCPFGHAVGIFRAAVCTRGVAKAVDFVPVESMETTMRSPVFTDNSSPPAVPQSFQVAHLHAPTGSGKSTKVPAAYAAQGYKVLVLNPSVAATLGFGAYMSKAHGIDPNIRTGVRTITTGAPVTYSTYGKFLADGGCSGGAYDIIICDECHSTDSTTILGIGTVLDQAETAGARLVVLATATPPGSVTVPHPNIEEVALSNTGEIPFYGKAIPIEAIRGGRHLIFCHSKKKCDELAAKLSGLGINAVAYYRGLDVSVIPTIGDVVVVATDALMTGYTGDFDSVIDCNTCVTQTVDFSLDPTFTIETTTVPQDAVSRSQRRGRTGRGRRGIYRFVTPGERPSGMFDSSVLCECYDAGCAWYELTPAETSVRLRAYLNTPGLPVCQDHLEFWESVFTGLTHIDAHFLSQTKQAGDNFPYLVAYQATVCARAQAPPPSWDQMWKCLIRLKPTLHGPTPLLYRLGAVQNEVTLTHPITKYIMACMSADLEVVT

Row | Structure (SMILES) | EC50
1 | COc1ccc2c(O[C@@H]3C[C@H]4C(=O)N[C@]5(C(=O)O)CC5CCCCCCC[C@H](NC(=O)OC5CCCC5)C(=O)N4C3)cc(-c3nc(C(C)C)cs3)nc2c1 (stereo partly shown) [Compound 906] | ≤ 1000 nM
2 | COc1ccc2c(O[C@@H]3C[C@H]4C(=O)N[C@]5(C(=O)O)C[C@H]5/C=C\CCCCC[C@H](NC(=O)OC(C)(C)C)C(=O)N4C3)cc(-n3cccc3)nc2c1 [Compound 715] | ≤ 1000 nM
3 | COc1ccc2c(O[C@@H]3C[C@H]4C(=O)N[C@]5(C(=O)O)C[C@H]5/C=C\CCCCC[C@H](NC(=O)OC(C)(C)C)C(=O)N4C3)cc(-c3nccs3)nc2c1 [Compound 705] | ≤ 1000 nM
4 | COc1ccc2c(O[C@@H]3C[C@H]4C(=O)N[C@]5(C(=O)O)CC5/C=C\CCCCC[C@H](NC(=O)OC(C)(C)C)C(=O)N4C3)cc(-n3ccc(C)n3)nc2c1 (stereo partly shown) [Compound 738] | ≤ 1000 nM
5 | CCNc1nc(-c2cc(O[C@@H]3C[C@H]4C(=O)N[C@]5(C(=O)O)CC5/C=C\CCCCC[C@H](NC(=O)OC5CCCC5)C(=O)N4C3)c3ccc(OC)cc3n2)cs1 (stereo partly shown) [Compound 810] | ≤ 1000 nM
6 | COc1ccc2c(O[C@@H]3C[C@H]4C(=O)N[C@]5(C(=O)O)CC5/C=C\CCCCC[C@H](NC(=O)OC(C)(C)C)C(=O)N4C3)cc(-c3nc(C(C)C)cs3)nc2c1 (stereo partly shown) [Compound 725] | ≤ 1000 nM
7 | COc1ccc2c(O[C@@H]3C[C@H]4C(=O)N[C@]5(C(=O)O)C[C@H]5/C=C\CCCCC[C@H](NC(=O)OC(C)(C)C)C(=O)N4C3)cc(C)nc2c1 [Compound 728] | > 1000 nM
8 | COc1ccc2c(O[C@@H]3C[C@H]4C(=O)N[C@]5(C(=O)O)CC5CCCCCCC[C@H](NC(=O)OC5CCCC5)C(=O)N4C3)cc(-c3csc(N)n3)nc2c1 (stereo partly shown) [Compound 908] | ≤ 1000 nM
9 | COc1ccc2c(O[C@@H]3C[C@H]4C(=O)N[C@]5(C(=O)O)CC5/C=C\CCCCC[C@H](NC(=O)OC(C)(C)C)C(=O)N4C3)cc(-c3nccn3C)nc2c1 (stereo partly shown) [Compound 726] | ≤ 1000 nM
10 | COc1ccc2c(O[C@@H]3C[C@H]4C(=O)N[C@]5(C(=O)O)CC5/C=C\CCCCC[C@H](NC(=O)OC(C)(C)C)C(=O)N4C3)cc(-n3cccn3)nc2c1 (stereo partly shown) [Compound 733] | ≤ 1000 nM
11 | COc1ccc2c(O[C@@H]3C[C@H]4C(=O)N[C@]5(C(=O)O)C[C@H]5/C=C\CCCCC[C@H](NC(=O)OC(C)(C)C)C(=O)N4C3)cc(C3CCC=CO3)nc2c1 (stereo partly shown) [Compound 732] | > 1000 nM
12 | CCOc1cc(O[C@@H]2C[C@H]3C(=O)N[C@]4(C(=O)O)C[C@H]4/C=C\CCCCC[C@H](NC(=O)OC(C)(C)C)C(=O)N3C2)c2ccc(OC)cc2n1 [Compound 712] | ≤ 1000 nM
13 | COc1ccc2c(O[C@@H]3C[C@H]4C(=O)N[C@]5(C(=O)O)CC5/C=C\CCCCC[C@H](NC(=O)OC5CCCC5)C(=O)N4C3)cc(-c3csc(NC4CCC4)n3)nc2c1 (stereo partly shown) [Compound 826] | ≤ 1000 nM
14 | COc1ccc2c(O[C@@H]3C[C@H]4C(=O)N[C@]5(C(=O)O)CC5/C=C\CCCCC[C@H](NC(=O)OC5CCCC5)C(=O)N4C3)cc(-c3csc(NC(C)C)n3)nc2c1 (stereo partly shown) [Compound 822] | ≤ 1000 nM
15 | COc1ccc2c(O[C@@H]3C[C@H]4C(=O)N[C@]5(C(=O)O)C[C@H]5/C=C\CCCCC[C@H](NC(=O)OC(C)(C)C)C(=O)N4C3)cc(-c3csc(C(C)C)n3)nc2c1 [Compound 707] | ≤ 1000 nM
16 | COc1ccc2c(O[C@@H]3C[C@H]4C(=O)N[C@]5(C(=O)O)CC5/C=C\CCCCC[C@H](NC(=O)OC(C)(C)C)C(=O)N4C3)cc(-n3cc(C)cn3)nc2c1 (stereo partly shown) [Compound 734] | ≤ 1000 nM
17 | CCNc1nc(-c2cc(O[C@@H]3C[C@H]4C(=O)N[C@]5(C(=O)O)CC5CCCCCCC[C@H](NC(=O)OC5CCCC5)C(=O)N4C3)c3ccc(OC)cc3n2)cs1 (stereo partly shown) [Compound 910] | ≤ 1000 nM

Row | Structure (SMILES) | EC50
18 | COc1ccc2c(O[C@@H]3C[C@H]4C(=O)N[C@]5(C(=O)O)CC5/C=C\CCCCC[C@H](NC(=O)OC5CCCC5)C(=O)N4C3)cc(-c3csc(NC(=O)OCC(C)C)n3)nc2c1 (stereo partly shown) [Compound 819] | ≤ 1000 nM
19 | CCNc1nc(-c2cc(O[C@@H]3C[C@H]4C(=O)N[C@]5(C(=O)O)CC5CCCCCCC[C@H](NC(=O)OC(C)(C)C)C(=O)N4C3)c3ccc(OC)cc3n2)cs1 (stereo partly shown) [Compound 703] | ≤ 1000 nM
20 | COc1ccc2c(O[C@@H]3C[C@H]4C(=O)N[C@]5(C(=O)O)C[C@H]5/C=C\CCCCC[C@H](NC(=O)OC(C)(C)C)C(=O)N4C3)cc(-c3ccccn3)nc2c1 [Compound 704] | ≤ 1000 nM
21 | CNc1nc(-c2cc(O[C@@H]3C[C@H]4C(=O)N[C@]5(C(=O)O)C[C@H]5/C=C\CCCCC[C@H](NC(=O)OC(C)(C)C)C(=O)N4C3)c3ccc(OC)cc3n2)cs1 [Compound 729] | ≤ 1000 nM
22 | COc1ccc2c(O[C@@H]3C[C@H]4C(=O)N[C@]5(C(=O)O)CC5/C=C\CCCCC[C@H](NC(=O)OC5CCCC5)C(=O)N4C3)cc(-c3csc(NC4CC4)n3)nc2c1 (stereo partly shown) [Compound 825] | ≤ 1000 nM
23 | COCc1cc(O[C@@H]2C[C@H]3C(=O)N[C@]4(C(=O)O)C[C@H]4/C=C\CCCCC[C@H](NC(=O)OC(C)(C)C)C(=O)N3C2)c2ccc(OC)cc2n1 [Compound 727] | > 1000 nM
24 | COc1ccc2c(O[C@@H]3C[C@H]4C(=O)N[C@]5(C(=O)O)CC5/C=C\CCCCC[C@H](NC(=O)OC(C)(C)C)C(=O)N4C3)cc(-c3nnc(C)o3)nc2c1 (stereo partly shown) [Compound 716] | > 1000 nM
25 | COc1ccc2c(O[C@@H]3C[C@H]4C(=O)N[C@]5(C(=O)O)C[C@H]5/C=C\CCCCC[C@H](NC(=O)OC(C)(C)C)C(=O)N4C3)cc(-c3csc(N)n3)nc2c1 [Compound 731] | ≤ 1000 nM
26 | COc1ccc(-c2cc(O[C@@H]3C[C@H]4C(=O)N[C@]5(C(=O)O)C[C@H]5/C=C\CCCCC[C@H](NC(=O)OC(C)(C)C)C(=O)N4C3)c3ccc(OC)cc3n2)nc1 [Compound 737] | ≤ 1000 nM
27 | CCNc1nc(-c2cc(O[C@@H]3C[C@H]4C(=O)N[C@]5(C(=O)O)C[C@H]5/C=C\CCCCC[C@H](NC(=O)OC(C)(C)C)C(=O)N4C3)c3ccc(OC)cc3n2)cs1 [Compound 708] | ≤ 1000 nM
28 | COc1ccc2c(O[C@@H]3C[C@H]4C(=O)N[C@]5(C(=O)O)CC5/C=C\CCCCC[C@H](NC(=O)OC(C)(C)C)C(=O)N4C3)cc(-c3nc(C)no3)nc2c1 (stereo partly shown) [Compound 717] | ≤ 1000 nM
29 | COc1ccc2c(O[C@@H]3C[C@H]4C(=O)N[C@]5(C(=O)O)CC5CCCCCCC[C@H](NC(=O)OC5CCCC5)C(=O)N4C3)cc(-n3cccc3)nc2c1 (stereo partly shown) [Compound 907] | ≤ 1000 nM
30 | COc1ccc2c(O[C@@H]3C[C@H]4C(=O)N[C@]5(C(=O)O)C[C@H]5/C=C\COCCC[C@H](NC(=O)OC(C)(C)C)C(=O)N4C3)cc(-c3ccccc3)nc2c1 [Compound 701] | > 1000 nM
31 | COc1ccc2c(O[C@@H]3C[C@H]4C(=O)N[C@]5(C(=O)O)C[C@H]5/C=C\CCCCC[C@H](NC(=O)OC(C)(C)C)C(=O)N4C3)cc(-c3csc(NC(C)C)n3)nc2c1 [Compound 741] | ≤ 1000 nM
32 | COc1ccc2c(O[C@@H]3C[C@H]4C(=O)N[C@]5(C(=O)O)C[C@H]5/C=C\CCCCC[C@H](NC(=O)OC(C)(C)C)C(=O)N4C3)cc(-c3cccc(C)n3)nc2c1 [Compound 719] | ≤ 1000 nM
33 | COc1ccc2c(O[C@@H]3C[C@H]4C(=O)N[C@]5(C(=O)O)C[C@H]5/C=C\CCCCC[C@H](NC(=O)OC(C)(C)C)C(=O)N4C3)cc(-c3csc(NC(C)=O)n3)nc2c1 [Compound 702] | ≤ 1000 nM
34 | COc1ccc2c(O[C@@H]3C[C@H]4C(=O)N[C@]5(C(=O)O)CC5/C=C\CCCCC[C@H](NC(=O)OC5CCCC5)C(=O)N4C3)cc(-c3csc(NC4CCCC4)n3)nc2c1 (stereo partly shown) [Compound 827] | ≤ 1000 nM
